From patent US8309735B2, “Heterocyclic compounds for the inhibition of integrins and use thereof” (Shire Orphan Therapies GmbH, priority 2006, dated 2012)

Legend:
[1] = biological target: T1, integrin alpha5beta1 extracellular domain Fc-fusion (Homo sapiens, UniProt P05556+P08648); test: alpha5beta1 - Fibronectin Binding Assay (competitive ELISA); conditions: inhibition of integrin binding to fibronectin
T1 construct: The integrin alpha5beta1 extracellular domain Fc-fusion was expressed and purified as described; made in house
Description: (§1) The optimal concentrations of integrin and ligand were selected from ELISA binding studies with variable concentrations of both to obtain optimal signal noise ratio for further studies. IC50 studies were performed with fixed concentration of ligand and integrin and a serial dilution of inhibitor. The plates were measured with SpectraMax Plus reader (Molecular Devices). The resulting inhibition curves were analyzed using SoftMaxPro 4.0 software, the turning point describes the IC50 value.
(§2) Fibronectin was purchased from Sigma and fibrinogen from Calbiochem. (EMD Biosciences, Darmstadt, Germany). The integrin alpha5beta1 extracellular domain Fc-fusion was expressed and purified as described (Coe, 2001, J. Biol. Chem., 276, 35854). Integrin alphaIIbbeta3 was purchased form Kordia (Kordia Life Science, Leiden, Netherlands)
1.1. alpha5beta1—Fibronectin Binding Assay
Fibronectin was diluted with coating buffer (15 mM Na2CO3, 35 mM NaHCO3, pH 9.6) and coated with 100 μL/well to Nunc-Immuno maxisorp plates (Nalge Nunc Europe Ltd) over night at 4° C. After discarding the coating solution plates were washed 3 times with buffer 1 (25 mM Tris, pH 7.6, 150 mM NaCl, 1 mM MnCl2, 1 mg/ml BSA) and blocked with 100 μL blocking buffer (3% BSA in PBS 0.1% Tween20) for 1 hour at room temperature. After washing the blocked plates (3 times) with buffer 1, integrin (50 μL) and either inhibitor (serial dilution in buffer 1) or buffer 1 (50 μL) were added to the wells and incubated for one hour at RT. Plates were then washed (3 times) with buffer 1 and incubated with 100 μL of anti-human-Fc-HRP antibody conjugate (Sigma-Aldrich, Taufkirchen, Germany) in buffer 1 for 1 hour at RT. After additional washing steps (3 times) with buffer 150 μL of HRP substrate solution TMB (Seramun, Germany) were added to the wells. Color development was stopped after 3-5 minutes with 50 μL 1 M H2SO4. The developed color was measured at 450 nm and analyzed as described above.

[2] = biological target: T2, Integrin alphaIIbbeta3 (Homo sapiens, UniProt P05106+P08514); test: alphaIIbbeta3 - Fibrinogen Binding Assay (competitive ELISA); conditions: inhibition of integrin binding to fibrinogen, read-out: IC50 alphabIIbbeta3
T2 construct: purchased Kordia (Kordia Life Science, Leiden, Netherlands)
T2 sequence (P08514 32-887 limits assumed): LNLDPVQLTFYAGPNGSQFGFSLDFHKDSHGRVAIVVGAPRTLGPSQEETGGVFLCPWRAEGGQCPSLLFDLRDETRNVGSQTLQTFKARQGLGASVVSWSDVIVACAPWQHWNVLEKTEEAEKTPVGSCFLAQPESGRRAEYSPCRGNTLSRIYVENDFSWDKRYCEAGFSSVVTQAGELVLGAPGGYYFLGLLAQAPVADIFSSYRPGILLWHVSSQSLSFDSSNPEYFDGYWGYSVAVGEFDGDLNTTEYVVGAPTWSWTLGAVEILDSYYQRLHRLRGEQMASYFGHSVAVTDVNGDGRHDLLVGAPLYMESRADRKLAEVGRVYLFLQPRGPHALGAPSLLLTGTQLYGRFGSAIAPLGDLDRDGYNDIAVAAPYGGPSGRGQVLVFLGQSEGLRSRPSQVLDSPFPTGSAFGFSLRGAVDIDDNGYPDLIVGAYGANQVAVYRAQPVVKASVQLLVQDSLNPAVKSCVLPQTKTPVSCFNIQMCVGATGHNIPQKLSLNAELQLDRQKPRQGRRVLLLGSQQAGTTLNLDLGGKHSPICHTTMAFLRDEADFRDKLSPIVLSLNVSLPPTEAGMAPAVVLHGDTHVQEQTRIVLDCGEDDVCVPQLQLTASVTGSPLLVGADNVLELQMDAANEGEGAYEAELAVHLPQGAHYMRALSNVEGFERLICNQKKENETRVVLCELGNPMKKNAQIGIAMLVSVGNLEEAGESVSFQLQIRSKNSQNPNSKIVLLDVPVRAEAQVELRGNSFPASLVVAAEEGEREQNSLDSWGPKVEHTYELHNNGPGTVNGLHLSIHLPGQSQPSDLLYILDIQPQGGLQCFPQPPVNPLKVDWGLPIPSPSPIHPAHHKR
T2 sequence (P05106 27-788): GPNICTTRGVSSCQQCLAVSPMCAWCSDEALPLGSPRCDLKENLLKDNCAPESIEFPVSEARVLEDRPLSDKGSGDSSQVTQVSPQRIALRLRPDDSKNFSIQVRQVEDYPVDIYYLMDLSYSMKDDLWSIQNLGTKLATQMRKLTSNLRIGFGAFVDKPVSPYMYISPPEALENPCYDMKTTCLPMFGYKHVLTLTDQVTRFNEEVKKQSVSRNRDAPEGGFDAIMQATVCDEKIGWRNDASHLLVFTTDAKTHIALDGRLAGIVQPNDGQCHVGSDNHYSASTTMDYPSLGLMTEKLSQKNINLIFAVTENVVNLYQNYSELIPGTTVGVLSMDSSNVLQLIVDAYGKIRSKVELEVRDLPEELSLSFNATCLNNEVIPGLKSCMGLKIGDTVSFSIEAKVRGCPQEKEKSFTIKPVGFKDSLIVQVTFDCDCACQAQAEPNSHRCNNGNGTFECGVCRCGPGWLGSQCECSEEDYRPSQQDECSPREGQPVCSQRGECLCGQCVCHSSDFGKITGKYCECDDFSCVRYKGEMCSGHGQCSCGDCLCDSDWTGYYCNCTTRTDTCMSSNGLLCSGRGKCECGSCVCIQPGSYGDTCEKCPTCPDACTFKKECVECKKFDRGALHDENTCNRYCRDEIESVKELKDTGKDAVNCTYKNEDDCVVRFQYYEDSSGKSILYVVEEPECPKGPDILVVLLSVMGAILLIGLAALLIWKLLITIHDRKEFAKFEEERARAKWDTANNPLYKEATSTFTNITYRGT
Description: as §1, §2
1.2. alphaIIbbeta3—Fibrinogen Binding Assay
Fibrinogen was diluted with coating buffer (15 mM Na2CO3, 35 mM NaHCO3, pH 9.6) and coated with 100 μL/well to Nunc-Immuno maxisorp plates over night at 4° C. After discarding the coating solution plates were washed 3 times with buffer 1 (25 mM Tris, pH 7.6, 150 mM NaCl, 1 mM MnCl2, 1 mg/ml BSA) and blocked with 100 μL blocking buffer (3% BSA in PBS 0.1% Tween20) for 1 hour at room temperature. After washing the blocked plates (3 times) with buffer 1, integrin alphaIIbbeta3 (50 μL) and either inhibitor (serial dilution in buffer 3, 25 mM Tris, pH 7.6, 150 mM NaCl, 1 mM MnCl2, 1 mg/ml BSA 1 mM MgCl2, 1 mM CaCl2,) or buffer 3 (50 μL) were added to the wells and incubated for one hour at RT. Plates were then washed (3 times) with buffer 3 and incubated with 100 μL of anti-alphaIIbbeta3 antibody (anti CD41b, Pharmingen) in buffer 3 for 1 hour at RT. Plates were washed (3 times) with buffer 3 and incubated for 1 hour with 100 μL secondary antibody (anti-mouse-HRP conjugate, Sigma) in buffer 3. After additional washing steps (3 times) with buffer 3 50 μL of HRP substrate solution TMB (Seramun) were added to the wells. Color development was stopped after 3-5 minutes with 50 μL 1 M H2SO4. The developed color was measured at 450 nm and analyzed as described above.

In the case of `Cc1ccnc(NCc2coc(-c3ccc(C[C@H](NC(=O)c4c(C)cc(C)cc4C)C(=O)O)cc3)c2)c1` [Compound 12, 3-(4-{4-[(4-Methyl-pyridin-2-ylamino)-methyl]-furan-2-yl}-phenyl)-2-(2,4,6-trimethyl-benzoylamino)-propionic acid], the IC50 [1] is reported as < 0.1 µM and the IC50 [2] is reported as > 0.001 µM.
In the case of `Cc1ccnc(NCc2cn(-c3ccc(C[C@H](NC(=O)c4c(C)cc(C)cc4C)C(=O)O)cc3)nn2)c1` [Compound 15, 3-(4-{4-[(4-Methyl-pyridin-2-ylamino)-methyl]-[1,2,3]triazol-1-yl}-phenyl)-2-(2,4,6-trimethyl-benzoylamino)-propionic acid], the IC50 [1] is reported as < 0.1 µM and the IC50 [2] is reported as > 0.001 µM.
`Cc1ccnc(NCc2csc(-c3ccc(C[C@H](NC(=O)c4c(C)cc(C)cc4C)C(=O)O)cc3)c2)c1` [Compound 19, 3-(4-{4-[(4-Methyl-pyridin-2-ylamino)-methyl]-thiophen-2-yl}-phenyl)-2-(2,4,6-trimethyl-benzoylamino)-propionic acid] was tested, and the IC50 [1] was < 0.1 µM and the IC50 [2] was > 0.001 µM.
For `Cc1ccnc(NCc2cnc(-c3ccc(C[C@H](NC(=O)c4c(C)cc(C)cc4C)C(=O)O)cc3)s2)c1` [Compound 9, 3-(4-{5-[(4-Methyl-pyridin-2-ylamino)-methyl]-thiazol-2-yl}-phenyl)-2-(2,4,6-trimethyl-benzoylamino)-propionic acid], the IC50 [1] was < 0.1 µM and the IC50 [2] was > 0.001 µM.
For `Cc1ccnc(NCc2cc(-c3ccc(C[C@H](NC(=O)c4c(C)cc(C)cc4C)C(=O)O)cc3)on2)c1` [Compound 6, 3-(4-{3-[(4-Methyl-pyridin-2-ylamino)-methyl]-isoxazol-5-yl}-phenyl)-2-(2,4,6-trimethyl-benzoylamino)-propionic acid], the IC50 [1] was < 0.1 µM and the IC50 [2] was > 0.001 µM.
`Cc1ccnc(NCc2ccn(-c3ccc(C[C@H](NC(=O)C4(C)CCCCC4)C(=O)O)cc3)c2)c1` [Compound 22, 2-[(1-Methyl-cyclohexanecarbonyl)-amino]-3-(4-{3-[(4-methyl-pyridin-2-ylamino)-methyl]-pyrrol-1-yl}-phenyl)-propionic acid] was tested, and the IC50 [1] was < 0.1 µM and the IC50 [2] was > 0.001 µM.
`Cc1ccnc(NCc2coc(-c3ccc(C[C@H](NC(=O)c4c(C)cc(F)cc4C)C(=O)O)cc3)c2)c1` [Compound 37, 2-(4-Fluoro-2,6-dimethyl-benzoylamino)-3-(4-{4-[(4-methyl-pyridin-2-ylamino)-methyl]-furan-2-yl}-phenyl)-propionic acid] was tested, and the IC50 [1] was < 0.1 µM and the IC50 [2] was > 0.001 µM.
For `Cc1cc(C)c(C(=O)N[C@@H](Cc2ccc(-n3cc(CNc4nc5ccccc5[nH]4)nn3)cc2)C(=O)O)c(C)c1` [Compound 29, 3-(4-{4-[(1H-Benzoimidazol-2-ylamino)-methyl]-[1,2,3]triazol-1-yl}-phenyl)-2-(2,4,6-trimethyl-benzoylamino)-propionic], the IC50 [1] was < 0.1 µM and the IC50 [2] was > 0.001 µM.
In the case of `Cc1ccnc(NCc2coc(-c3ccc(C[C@H](NC(=O)c4c(C)cccc4C)C(=O)O)cc3)c2)c1` [Compound 35, 2-(2,6-Dimethyl-benzoylamino)-3-(4-{4-[(4-methyl-pyridin-2-ylamino)-methyl]-furan-2-yl}-phenyl)-propionic acid], the IC50 [1] is reported as < 0.1 µM and the IC50 [2] is reported as > 0.001 µM.
With `CCc1cccc(C)c1C(=O)N[C@@H](Cc1ccc(-c2cc(CNc3cc(C)ccn3)co2)cc1)C(=O)O` [Compound 36, 2-(2-Ethyl-6-methyl-benzoylamino)-3-(4-{4-[(4-methyl-pyridin-2-ylamino)-methyl]-furan-2-yl}-phenyl)-propionic acid] the IC50 [1] was < 0.1 µM and the IC50 [2] was > 0.001 µM.
